Several values for one entry are separate records, joined by “and”; a condition that tells them apart may be missing. Equal values may be shown once.

As usually defined, the EC50 is the concentration that produces a half-maximal response. High values mean a need for much substance, low ones an effect from little substance.

The target of test [1] is T1, Human P2Y1-R (Homo sapiens, UniProt P47900).
T1 construct: expressed in transfected cells; host or cells: HEK293T/17
Description: IP1 accumulation assay (HTRF) in HEK293T cells expressing P2Y1-R. Format: cell-based. The settings on record: ADP 100 μM, MRS2179 10 μM, Gq inhibitor 100 nM, 2 h, result in words.
Description: Since Gαq protein activation is known to induce PLC activation leading to IP3 and subsequent cytosolic calcium release, we analyzed the constitutive Gαq-dependent P2Y1-R signaling by quantifying intracellular inositol monophosphate (IP1) using a monoclonal antibody-based competitive ELISA. IP1 is a downstream metabolite of IP3 that accumulates in cells following Gαq protein-coupled receptor activation, making it an ideal readout for Gαq protein-dependent signaling pathways.

In another test the target is T2, Human P2Y12-R (Homo sapiens, UniProt Q9H244).
T2 construct: expressed in transfected cells; host or cells: HEK293T/17
Description: β-arrestin 2 recruitment BRET1 assay (β-arrestin 2-RLuc / P2Y12-R-Venus) in HEK293T cells. Format: cell-based. As to conditions: 10 μM, 5 min, result in words. From the text: We assessed β-arrestin 2 recruitment to the receptor using BRET^1 assay. The assay measures the interaction between β-arrestin 2 fused to the Renilla reniformis luciferase (RLuc) energy donor and the receptor fused to fluorescent Venus energy acceptor (Fig. 3a). The recruitment of cytosolic β-arrestin 2 to the receptor at the plasma membrane in the presence of an agonist will promote a significant increase of the BRET signal compared to the basal state, reflecting the close proximity between the β-arrestin 2 energy donor and the receptor energy acceptor [22]. […]
G protein activation and β-arrestin 2 recruitment were performed as previously described. […] BRET signal between RLuc8 and GFP2 was measured after addition of the luciferase substrate coelenterazine 400a (5 μM). […] BRET signal was recorded after incubation with coelenterazine h (5 μM) for 8 min. For kinetics studies, BRET signal between RLuc and Venus was recorded at 20-s intervals at basal state for the 2 first minutes and then for 5 min after ligand injection. For saturation curves (BRET^1), the expression level of Venus- or RLuc-tagged protein was determined by direct measurement of total fluorescence and luminescence respectively. Total fluorescence was first measured with an excitation filter at 485 nm and an emission filter at 520 nm. […] BRET^2 and BRET^1 readings were collected using a modified Infinite F500 (Tecan Group Ltd). […]
(Activated receptors often draw arrestin, which recruitment assays turn into a signal.)

Test [2] has as its system washed murine platelets (P2Y1-R/Gαq signaling). Kind of test: IP1 accumulation assay (HTRF) in washed murine platelets. Format: cell-based, mouse. As to conditions: washed murine platelets, ADP 100 μM, MRS2179 10 μM, Gq inhibitor 100 nM, 2 h, apyrase 0.02 U/mL, result in words. On the procedure: As performed in HEK293T cells, we thus quantified intracellular IP1 levels to monitor Gαq protein-dependent signaling pathways.
Platelet-rich plasma (PRP) was obtained by mixing blood with 1 volume of modified Hepes Tyrode’s buffer (137 mM NaCl, 2 mM KCl, 12 mM NaHCO3, 0.3 mM NaH2PO4, 1 mM MgCl2, 2 mM CaCl2, 5.5 mM glucose, 5 mM HEPES, and 0.35% (w/v) BSA, pH 6.7) followed by a centrifugation at 150 g for 2 min at 37 °C. Then, platelets were pelleted by centrifugation at 1000 g for 4 min, resuspended in modified Hepes Tyrode’s buffer (pH 7.4), adjusted to 3.10^8 platelets/mL in the presence of 0.02 U/mL of apyrase and 10 μM indomethacin and rested for 45 minutes at 37°C before platelet stimulation. PGI2 (0.5 μM) was added before centrifugation steps to avoid platelet activation.
Quantification of intracellular IP1 was performed using the HTRF (Homogeneous Time Resolved Fluorescence) IP1 competitive immunoassay (IP-One Tb kit. Cisbio. France) according to the manufacturer’s instructions. Briefly, 20,000 HEK293T/17 cells or 3.10^6 platelets were distributed in a 384-well white microplate (Greiner) and incubated with the indicated molecules for 30 min or 2 h at 37 °C in the presence of 50 mM of LiCl to prevent IP1 degradation. After addition of d2-labeled IP1 (acceptor) and anti-IP1-Cryptate (donor) for 1 h, the specific FRET signals were calculated by the fluorescence ratio of the acceptor and donor emission signal (665/620 nm) collected using a modified Infinite F500 (Tecan Group Ltd). Conversion of the HTRF ratio of each sample into IP1 concentrations was performed on the basis of a standard curve to determine the linear dynamic range of the assay.

Test [3] addresses T1, Human P2Y1-R. Kind of test: β-arrestin 2 recruitment BRET1 assay (β-arrestin 2-RLuc / P2Y1-R-Venus) in HEK293T cells. The settings on record: for b-arrestin 2 signaling, Ligand-modulated BRET (% of maximum MRS2179 mean value): Figure 4b, individual replicates; for Effect on β-arrestin 2 recruitment / BRET signal between P2Y1-R-Venus and β-arrestin 2-RLuc: HEK293T cells, high P2Y1-R expression, result in words; for EC50 / pEC50 ± s.e.m.: β-Arrestin 2 signaling, Fig. 4b, 15 min. Format: cell-based. The text has this:
We assessed β-arrestin 2 recruitment to the receptor using BRET^1 assay. The assay measures the interaction between β-arrestin 2 fused to the Renilla reniformis luciferase (RLuc) energy donor and the receptor fused to fluorescent Venus energy acceptor (Fig. 3a). The recruitment of cytosolic β-arrestin 2 to the receptor at the plasma membrane in the presence of an agonist will promote a significant increase of the BRET signal compared to the basal state, reflecting the close proximity between the β-arrestin 2 energy donor and the receptor energy acceptor [22].
Human P2Y1-R (NCBI Reference Sequence: NM_002563.2) and P2Y12-R (NCBI Reference Sequence: NM_022788.3) were fused to double Myc epitope and rat AT1-R (NCBI Reference Sequence: NM_030985.4) to HA tag in N-terminus extracellular region. Alternatively, receptors were also fused to Venus tag in C-terminus intracellular region. Plasmids encoding Gαq-RLuc8, GFP2-Gγ2 and untagged Gβ1 were previously described. ADP was purchased from Sigma-Aldrich/Merck (Darmstadt, Germany). […] The Gq inhibitor (FR900359) was kindly supplied by Evi Kostenis (University of Bonn. Germany).
G protein activation and β-arrestin 2 recruitment were performed as previously described. Briefly, vectors encoding receptors, Gαq-RLuc8, GFP2-Gγ2, Gβ1, or β-arrestin 2 were transiently cotransfected into HEK293T/17 cells as indicated in the figure legends. Forty-eight hours after transfection, cells were washed and resuspended in PBS containing 0.1% (w/v) glucose at room temperature and then distributed (80 μg proteins/well) in a 96-well microplate (PerkinElmer). For G protein activation experiments (BRET^2), cells were incubated in the absence (basal BRET signal) or in the presence of ligand for 1 minute. BRET signal between RLuc8 and GFP2 was measured after addition of the luciferase substrate coelenterazine 400a (5 μM). For β-arrestin 2 recruitment (BRET^1), cells were stimulated with ligands for 5 or 15 min. BRET signal was recorded after incubation with coelenterazine h (5 μM) for 8 min. For kinetics studies, BRET signal between RLuc and Venus was recorded at 20-s intervals at basal state for the 2 first minutes and then for 5 min after ligand injection. For saturation curves (BRET^1), the expression level of Venus- or RLuc-tagged protein was determined by direct measurement of total fluorescence and luminescence respectively. Total fluorescence was first measured with an excitation filter at 485 nm and an emission filter at 520 nm. Then, the same sample was incubated for 8 minutes with 5 μM coelenterazine h and the total luminescence was measured. BRET^2 and BRET^1 readings were collected using a modified Infinite F500 (Tecan Group Ltd). The BRET^2 signal was calculated by the ratio of emission of GFP2 (510–540 nm) to RLuc8 (370–450 nm) and the BRET^1 signal by the ratio of emission of Venus (520–570 nm) to RLuc (370–480 nm). Sometimes, results are expressed as the Net BRET computed by deducting the BRET background signal (obtained in the presence of the energy donor alone) from the BRET signal (acquired from cells expressing both the energy donor and acceptor).

T1 sequence (P47900 whole entry): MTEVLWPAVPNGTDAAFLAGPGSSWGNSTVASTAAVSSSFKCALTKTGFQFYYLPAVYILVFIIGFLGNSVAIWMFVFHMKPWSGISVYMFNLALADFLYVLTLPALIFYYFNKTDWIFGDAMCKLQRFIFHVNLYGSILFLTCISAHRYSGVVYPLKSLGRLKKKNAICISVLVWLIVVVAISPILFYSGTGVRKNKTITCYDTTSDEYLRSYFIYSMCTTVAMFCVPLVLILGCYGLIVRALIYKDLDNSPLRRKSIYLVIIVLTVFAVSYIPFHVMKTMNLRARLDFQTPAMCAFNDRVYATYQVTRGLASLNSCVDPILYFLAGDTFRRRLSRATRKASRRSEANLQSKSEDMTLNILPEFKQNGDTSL
T2 sequence (Q9H244 whole entry): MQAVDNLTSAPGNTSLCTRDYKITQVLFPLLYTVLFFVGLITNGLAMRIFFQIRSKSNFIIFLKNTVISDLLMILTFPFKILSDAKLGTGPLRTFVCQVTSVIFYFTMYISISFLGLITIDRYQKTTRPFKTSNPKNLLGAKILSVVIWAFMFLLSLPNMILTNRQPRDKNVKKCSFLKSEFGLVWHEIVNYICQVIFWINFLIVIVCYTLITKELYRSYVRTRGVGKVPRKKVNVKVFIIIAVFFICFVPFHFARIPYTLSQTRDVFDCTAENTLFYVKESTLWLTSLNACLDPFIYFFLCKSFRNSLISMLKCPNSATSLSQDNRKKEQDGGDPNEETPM

With `Nc1ncnc2c1ncn2[C@@H]1O[C@H](COP(=O)(O)OP(=O)(O)O)[C@@H](O)[C@H]1O` [ADP, adenosine diphosphate], the “Effect on IP1 production” value at Human P2Y1-R [1] was “slightly but significantly potentiated”. Moreover, the “Effect on β-arrestin 2 recruitment” value at Human P2Y12-R is “did not trigger β-arrestin 2 recruitment”. Besides, the “Effect on IP1 levels” value in test [2] is given as “significantly increased”.
For the compound `CNc1nc(I)nc2c1ncn2[C@H]1C[C@H](OP(=O)(O)O)[C@]2(COP(=O)(O)O)C[C@H]12` [MRS2500, 2-iodo-N6-methyl-(N)-methanocarba-2′-deoxyadenosine-3′,5′-bisphosphate], the “b-arrestin 2 signaling, Ligand-modulated BRET (% of maximum MRS2179 mean value)” value on Human P2Y1-R [3] ([Ligand] 1.00E-04 M) was -104.002 % of maximum MRS2179 mean value and -94.5729 % of maximum MRS2179 mean value and -88.0915 % of maximum MRS2179 mean value and -87.9506 % of maximum MRS2179 mean value and -95.5776 % of maximum MRS2179 mean value; at Human P2Y1-R [3] ([Ligand] 1.00E-05 M) it was -100.008 % of maximum MRS2179 mean value and -86.7675 % of maximum MRS2179 mean value and -90.0217 % of maximum MRS2179 mean value and -77.5434 % of maximum MRS2179 mean value and -80.2036 % of maximum MRS2179 mean value; on Human P2Y1-R [3] ([Ligand] 1.00E-06 M) it was -95.5169 % of maximum MRS2179 mean value and -78.4136 % of maximum MRS2179 mean value and -91.3759 % of maximum MRS2179 mean value and -80.0813 % of maximum MRS2179 mean value and -75.5319 % of maximum MRS2179 mean value; on Human P2Y1-R [3] ([Ligand] 1.00E-07 M), -75.2707 % of maximum MRS2179 mean value and -41.8369 % of maximum MRS2179 mean value and -76.2614 % of maximum MRS2179 mean value and -66.0129 % of maximum MRS2179 mean value and -61.7221 % of maximum MRS2179 mean value; on Human P2Y1-R [3] ([Ligand] 1.00E-08 M) it was -7.396 % of maximum MRS2179 mean value and -28.7379 % of maximum MRS2179 mean value and -20.7409 % of maximum MRS2179 mean value and -45.6895 % of maximum MRS2179 mean value and -5.348 % of maximum MRS2179 mean value; at Human P2Y1-R [3] ([Ligand] 1.00E-09 M), -12.4711 % of maximum MRS2179 mean value and -18.0888 % of maximum MRS2179 mean value and -11.5273 % of maximum MRS2179 mean value and -5.043 % of maximum MRS2179 mean value and 9.479 % of maximum MRS2179 mean value. Besides, the “b-arrestin 2 signaling, Ligand-modulated BRET (% of maximum MRS2179 mean value)” value at Human P2Y1-R [3] ([Ligand] 1.00E-10 M) is -23.8118 % of maximum MRS2179 mean value and -10.0375 % of maximum MRS2179 mean value and -6.745 % of maximum MRS2179 mean value and -2.51 % of maximum MRS2179 mean value and -4.926 % of maximum MRS2179 mean value. In addition, on Human P2Y1-R [3], the “Effect on β-arrestin 2 recruitment / BRET signal between P2Y1-R-Venus and β-arrestin 2-RLuc” value is recorded as “behaved as inverse agonists”. Moreover, the “Signaling bias (β-arrestin 2 versus Gαq protein signaling)” value on Human P2Y1-R [3] (compared to MRS2179, from potencies of Table 1) is listed as “biased inverse agonist”. In addition, the EC50 at Human P2Y1-R [3] came out at 0.0475 µM. Further, the “pEC50 ± s.e.m.” value on Human P2Y1-R [3] is reported as 7.323 ± 0.1193.
`CNc1nc(Cl)nc2c1ncn2[C@H]1CC(OP(=O)(O)O)[C@]2(COP(=O)(O)O)C[C@H]12` (stereo in doubt) [MRS2279]: the “b-arrestin 2 signaling, Ligand-modulated BRET (% of maximum MRS2179 mean value)” value is -69.6106 % of maximum MRS2179 mean value and -105.156 % of maximum MRS2179 mean value and -85.2747 % of maximum MRS2179 mean value and -86.0383 % of maximum MRS2179 mean value and -102.622 % of maximum MRS2179 mean value on Human P2Y1-R [3] ([Ligand] 1.00E-04 M); -58.9493 % of maximum MRS2179 mean value and -35.292 % of maximum MRS2179 mean value and -0.8674 % of maximum MRS2179 mean value and -67.8538 % of maximum MRS2179 mean value and -74.7757 % of maximum MRS2179 mean value at Human P2Y1-R [3] ([Ligand] 1.00E-05 M); -39.831 % of maximum MRS2179 mean value and -16.8165 % of maximum MRS2179 mean value and 4.878 % of maximum MRS2179 mean value and -40.0637 % of maximum MRS2179 mean value and -56.9245 % of maximum MRS2179 mean value on Human P2Y1-R [3] ([Ligand] 1.00E-06 M); -39.6457 % of maximum MRS2179 mean value and -31.8109 % of maximum MRS2179 mean value and -14.3137 % of maximum MRS2179 mean value and -31.2635 % of maximum MRS2179 mean value and -51.8509 % of maximum MRS2179 mean value at Human P2Y1-R [3] ([Ligand] 1.00E-07 M); -22.0748 % of maximum MRS2179 mean value and -36.9002 % of maximum MRS2179 mean value and -1.913 % of maximum MRS2179 mean value and -12.8092 % of maximum MRS2179 mean value and -19.8439 % of maximum MRS2179 mean value on Human P2Y1-R [3] ([Ligand] 1.00E-08 M); -17.6957 % of maximum MRS2179 mean value and -18.0324 % of maximum MRS2179 mean value and -16.7903 % of maximum MRS2179 mean value and 1.141 % of maximum MRS2179 mean value and 5.256 % of maximum MRS2179 mean value on Human P2Y1-R [3] ([Ligand] 1.00E-09 M). The “b-arrestin 2 signaling, Ligand-modulated BRET (% of maximum MRS2179 mean value)” value at Human P2Y1-R [3] ([Ligand] 1.00E-10 M) was -24.7041 % of maximum MRS2179 mean value and -19.9635 % of maximum MRS2179 mean value and -11.9373 % of maximum MRS2179 mean value and -22.7633 % of maximum MRS2179 mean value and -19.9712 % of maximum MRS2179 mean value. At Human P2Y1-R [3], the “Effect on β-arrestin 2 recruitment / BRET signal between P2Y1-R-Venus and β-arrestin 2-RLuc” value was “behaved as inverse agonists”. The same compound came in with an EC50 at Human P2Y1-R [3] of 19.4 µM. The “pEC50 ± s.e.m.” value at Human P2Y1-R [3] worked out at 4.712 ± 0.2838.

For the origin of these results see paper PMC9890698 (BMC Biology, 2023).
